Measured values as given in patent US12329726B2, “Biomarkers for efficacy of prophylactic treatments against stress-induced affective disorders” (The Trustees of Columbia University in the City of New York, priority 2017, dated 2025).

Key:
[1] = tested on: plasma amino acid-derived neurotransmitters and precursors; assay: Separate plasma analysis of metabolites involved in neurotransmission, stressed mice; type: in vivo
[2] = tested on: treatment-resistant MDD (TRD) patients; settings: cited from earlier work
[3] = tested on: mouse models of stress; settings: cited from earlier work
[4] = tested on: 129S6/SvEvTac mice; assay: 3-shock contextual fear conditioning (CFC), freezing; settings: ketamine 30 mg kg-1 i.p., single dose 1 week before 3-shock CFC; vs saline
[5] = tested on: 129S6/SvEvTac mice; assay: Context exposure without shocks (no-shock control), freezing; settings: ketamine 30 mg kg-1 i.p., 1 week before context exposure without shocks; vs saline
[6] = tested on: PFC metabolites; assay: Metabolomic profiling of PFC, non-stressed mice (ketamine, no shock)
[7] = tested on: HPC metabolites; assay: Metabolomic profiling of HPC, non-stressed mice (ketamine, no shock); settings: context exposure group (no shock), following prophylactic ketamine administration
[8] = tested on: plasma metabolites; assay: Metabolomic profiling of plasma, non-stressed mice (ketamine, no shock); settings: prophylactic ketamine, mice not administered shocks
[9] = tested on: plasma metabolites; assay: Untargeted metabolomic profiling of plasma, stressed mice (ketamine + CFC); settings: prophylactic ketamine + stress
[10] = tested on: HPC metabolites; assay: Untargeted metabolomic profiling of hippocampus (HPC), stressed mice (ketamine + CFC)
[11] = tested on: PFC metabolites; assay: Untargeted metabolomic profiling of prefrontal cortex (PFC), stressed mice (ketamine + CFC)
[12] = biological target: T1, kappa-opioid receptor (KOR) (Rattus norvegicus, UniProt P34975); settings: administered before the FPS test; cited from earlier work
T1 construct: host or cells: live rats (behavioural test)

[13] = Plasma, CFC group, following prophylactic ketamine administration
[14] = single injection 30 mg kg-1, 1 week before a stressor
[15] = ketamine 30 mg/kg without CFC stress
[16] = HPC, CFC group, following prophylactic ketamine administration
[17] = prophylactic ketamine + stress, MetaboAnalyst 3.0
[18] = PFC, CFC group, following prophylactic ketamine administration
[19] = prophylactic ketamine + stress, vs saline

T1 sequence (P34975 whole entry): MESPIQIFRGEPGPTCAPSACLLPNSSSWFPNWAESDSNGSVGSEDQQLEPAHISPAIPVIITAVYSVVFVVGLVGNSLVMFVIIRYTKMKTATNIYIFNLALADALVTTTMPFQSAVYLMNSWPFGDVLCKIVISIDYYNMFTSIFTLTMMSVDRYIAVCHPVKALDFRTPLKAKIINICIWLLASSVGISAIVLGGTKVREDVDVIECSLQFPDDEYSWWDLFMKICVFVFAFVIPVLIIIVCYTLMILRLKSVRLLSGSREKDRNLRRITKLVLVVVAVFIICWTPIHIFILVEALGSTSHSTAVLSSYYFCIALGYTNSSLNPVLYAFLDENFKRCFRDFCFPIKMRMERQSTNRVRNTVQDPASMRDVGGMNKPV

Compound: CNC1(c2ccccc2Cl)CCCCC1=O (racemic) [ketamine, (RS)-2-(2-chlorophenyl)-2-(methylamino)cyclohexanone]
- 5-Hydroxy-L-tryptophan (5-HTP) level, change [1, 13]: Increase
- D-Serine (Ser) level, change [1, 13]: Decrease
- Gamma-aminobuytric acid (GABA) level, change [1, 13]: Decrease
- L-Glutamic acid (Glu) level, change [1, 13]: Decrease
- N-Acetyl-L-tyrosine (NALT) level, change [1, 13]: Decrease
- O-Phosphoethanolamine (PE) level, change [1, 13]: Increase
- Plasma serine and glutamic acid (excitatory neurotransmitters) ([1]; prophylactic ketamine + stress): serine and glutamic acid were decreased
- Persistence of antidepressant effects ([2]; following a single infusion): 1-2 weeks
- Antidepressant onset ([2]; single infusion, TRD patients): ≤ 2 h
- Time window for prophylactic efficacy before a stressor ([3]; not 1 month or 1 hour before): approximately 1 week
- Duration of protection after injection [3, 14]: up to 4 weeks
- Stress-induced depressive-like behavior and social avoidance behavior [3, 14]: prevented stress-induced depressive-like behavior and social avoidance behavior
- Fear response (freezing) during context re-exposure [4]: attenuated the fear response
- Freezing behavior during CFC encoding (training) [4]: did not alter freezing behavior during CFC encoding
- Freezing behavior during context exposure or re-exposure, no shocks [5]: did not alter freezing behavior during context exposure or re-exposure
- Number of purine metabolites significantly altered in one hemisphere of PFC or HPC, no stress [6, 15]: 3 metabolites
- Number of pyrimidines significantly altered in one hemisphere of PFC or HPC, no stress [6, 15]: 2
- Purine metabolite changes in PFC and HPC without stress ([6]; prophylactic ketamine without stress): these changes were not observed
- Amino acid-derived neurotransmitter metabolites in brain of non-stressed mice ([6]; prophylactic ketamine, non-stressed mice): only the inhibitory neurotransmitter metabolite taurine was changed
- Taurine (Tau) level, change [7]: Increase
- Purine or pyrimidine metabolites in plasma, no shocks [8]: no changes in purines or pyrimidine metabolites were observed
- Pathway analysis of changed metabolites in plasma [9]: purine metabolism, pyrimidine metabolism, the citrate cycle (TCA cycle), and the pentose phosphate pathway were most significantly changed
- Ribose and ribulose phosphate (pentose phosphate pathway intermediates) in plasma [9]: significantly changed
- Purine metabolites in the plasma ([9]; vs saline): significantly increased purine metabolites
- Pyrimidine metabolites in the plasma ([9]; with the exception of 5,6-dihydrouridine): increased expression of pyrimidine metabolites
- D-Alanine (Ala) level, change [10, 16]: Increase
- Gamma-aminobuytric acid (GABA) level, change [10, 16]: Increase
- L-Glutamic acid (Glu) level, change [10, 16]: Increase
- O-Phosphoethanolamine (PE) level, change [10, 16]: Increase
- Taurine (Tau) level, change [10, 16]: Increase
- Pathway analysis of changed metabolites in the HPC: further pathways [10, 17]: altered alanine, aspartate, and glutamate metabolism; glutamine and glutamate metabolism; and taurine and hypotaurine metabolism
- Pathway analysis of changed metabolites in the HPC: purine metabolism [10, 17]: purine metabolism was also significantly altered
- D-Serine (Ser) level, change [11, 18]: Decrease
- Glycine (Gly) level, change [11, 18]: Decrease
- L-Tyrosine (Tyr) level, change [11, 18]: Decrease
- Phenylalanine (Phe) level, change [11, 18]: Decrease
- Correlation of dUDP expression in the PFC with freezing levels upon context re-exposure ([11]; mice given prophylactic ketamine prior to stress, regression analysis): positively correlated with freezing levels
- Number of metabolites changed in the same direction in both hemispheres of the PFC and HPC ([11]; of the 8 changed, prophylactic ketamine + stress): 6 metabolites
- Number of metabolites changed in both hemispheres of the PFC and HPC ([11]; prophylactic ketamine 30 mg kg-1 + CFC stressor, PFC and HPC): 8 metabolites
- Pathway analysis of changed metabolites in the PFC [11, 17]: purine metabolism; phenylalanine, tyrosine, and tryptophan metabolism; and phenylalanine metabolism are most significantly changed
- Levels of AMP and ATP in PFC, HPC and plasma ([11]; prophylactic ketamine + stress, both hemispheres of PFC and HPC, and plasma): increases levels of adenosine monophosphate (AMP) and ATP
- Inhibitory neurotransmitter metabolites in PFC and HPC ([11]; prophylactic ketamine + stress, e.g. alanine, GABA, taurine): almost all inhibitory neurotransmitter metabolites were increased
- Excitatory neurotransmitter metabolites in PFC and HPC ([11]; prophylactic ketamine + stress, e.g. serine, tyrosine, phenylalanine, exception glutamic acid): nearly all excitatory neurotransmitter metabolites were decreased
- Adenosine and guanosine metabolites in both hemispheres of PFC and HPC [11, 19]: increased
- Inosine metabolites in both hemispheres of PFC and HPC [11, 19]: decreased

Compound: Oc1ccc2c3c1O[C@H]1c4[nH]c5c(c4C[C@@]4(O)[C@@H](C2)N(CC2CC2)CC[C@]314)C[C@@]1(O)[C@H]2Cc3ccc(O)c4c3[C@@]1(CCN2CC1CC1)[C@H]5O4 [norBNI, nor-binaltorphimine]
- Conditioned fear in FPS test [12]: attenuated conditioned fear
